Experimental data: the supplement of paper PMC10307832

What follows are cell lines tested with C1CCC(CC1)N(CCNCCC2=C3C(=C(C=C2)O)NC(=O)CO3)C(=O)CCNCCC4=CC(=C(C=C4)Cl)Cl [AZ505] + Nc1ncn([C@H]2C[C@H](O)[C@@H](CO)O2)c(=O)n1 [Decitabine] (partner 2 µM) (assay: relative viability (nuclei count vs DMSO), 5 days (fraction); higher = more cells survive). Details: first compound 0.08 µM.
How it was run: (§1)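 One day after seeding in 1536-well plates, lung cancer cell lines were dosed by pin tool. Dosing was either single-drug or a fixed anchor-drug dose plus five library-drug doses (not always all listed) in √10 steps. After 5 days, nuclei were stained in one fix-and-stain step and counted on 4× images, and relative viability is the nuclei count of treated wells over that of vehicle wells, given as the median of duplicate plates.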
Work on NCI-H2405 yielded a relative viability of 0.605.
HOP-62 gave a relative viability of 0.21.
HCC-44 gave a relative viability of 0.902.
Work on LU99A yielded a relative viability of 0.841.
BEN gave a relative viability of 0.714.
For HARA, the relative viability was 0.302.
In the case of NCI-H322M, the relative viability is reported as 0.679.
LCLC-97TM1 was tested, and the relative viability was 0.195.
With NCI-H2009 the relative viability was 0.451.
In the case of A-427, the relative viability is reported as 0.58.
For NCI-H441, the relative viability was 0.287.
NCI-H661 showed a relative viability of 0.54.
For NCI-H1734, the relative viability was 0.52.
NCI-H460 gave a relative viability of 0.481.
For NCI-H2347, the relative viability was 0.545.
SW 1573 gave a relative viability of 0.517.
201T gave a relative viability of 0.857.
In the case of NCI-H1915, the relative viability is reported as 0.278.
Work on HCC-827 yielded a relative viability of 0.325.
For LXF-289, the relative viability was 0.355.
With NCI-H23 the relative viability was 0.284.
NCI-H647 was tested, and the relative viability was 0.356.
With NCI-H1651 the relative viability was 0.55.
EPLC-272H showed a relative viability of 0.35.
NCI-H1792 showed a relative viability of 0.494.
Cell Line NCI-H1355 has a relative viability of 0.345.
For NCI-H3122, the relative viability was 0.417.
NCI-H1437 gave a relative viability of 0.574.
Cell Line NCI-H1755 has a relative viability of 0.721.
For NCI-H2023, the relative viability was 0.196.
With HCC-15 the relative viability was 0.566.

Same assay, conditions: first compound 0.253 µM
With HOP-62 the relative viability was 0.221.
Work on HCC-44 yielded a relative viability of 1.03.
In the case of LU99A, the relative viability is reported as 0.921.
BEN was tested, and the relative viability was 0.655.
Cell Line LCLC-97TM1 has a relative viability of 0.253.
NCI-H2009 was tested, and the relative viability was 0.397.
A-427 was tested, and the relative viability was 0.551.
For NCI-H441, the relative viability was 0.245.
With NCI-H661 the relative viability was 0.575.
NCI-H1734 showed a relative viability of 0.501.
In the case of NCI-H460, the relative viability is reported as 0.525.
Cell Line NCI-H2347 has a relative viability of 0.572.
SW 1573 was tested, and the relative viability was 0.63.
For 201T, the relative viability was 0.863.
For NCI-H1915, the relative viability was 0.303.
HCC-827 gave a relative viability of 0.313.
For LXF-289, the relative viability was 0.39.
NCI-H23 was tested, and the relative viability was 0.326.
For NCI-H647, the relative viability was 0.451.
NCI-H1651 was tested, and the relative viability was 0.576.
EPLC-272H gave a relative viability of 0.352.
NCI-H1792 was tested, and the relative viability was 0.481.
NCI-H1355 was tested, and the relative viability was 0.366.
NCI-H3122 gave a relative viability of 0.414.
Cell Line NCI-H1437 has a relative viability of 0.571.
With NCI-H1755 the relative viability was 0.727.
Work on NCI-H2023 yielded a relative viability of 0.242.
For HCC-15, the relative viability was 0.627.

Same assay, conditions: first compound 0.8 µM
In the case of NCI-H2405, the relative viability is reported as 0.702.
HOP-62 was tested, and the relative viability was 0.259.
In the case of HCC-44, the relative viability is reported as 0.869.
For LU99A, the relative viability was 0.802.
Work on BEN yielded a relative viability of 0.752.
In the case of HARA, the relative viability is reported as 0.41.
For HCC-78, the relative viability was 0.738.
With NCI-H322M the relative viability was 0.67.
In the case of LCLC-97TM1, the relative viability is reported as 0.244.
With NCI-H2009 the relative viability was 0.361.
For A-427, the relative viability was 0.488.
NCI-H441 was tested, and the relative viability was 0.232.
Work on NCI-H661 yielded a relative viability of 0.522.
Work on NCI-H1734 yielded a relative viability of 0.45.
Work on NCI-H460 yielded a relative viability of 0.461.
Cell Line NCI-H2347 has a relative viability of 0.511.
Work on SW 1573 yielded a relative viability of 0.569.
For 201T, the relative viability was 0.812.
Cell Line NCI-H1915 has a relative viability of 0.29.
HCC-827 was tested, and the relative viability was 0.324.
In the case of LXF-289, the relative viability is reported as 0.396.
NCI-H23 gave a relative viability of 0.327.
With NCI-H647 the relative viability was 0.372.
In the case of NCI-H1651, the relative viability is reported as 0.672.
In the case of EPLC-272H, the relative viability is reported as 0.305.
NCI-H1792 showed a relative viability of 0.602.
Cell Line NCI-H1355 has a relative viability of 0.37.
NCI-H3122 gave a relative viability of 0.418.
Cell Line NCI-H1437 has a relative viability of 0.62.
For NCI-H1755, the relative viability was 0.724.
With NCI-H2023 the relative viability was 0.228.
HCC-15 was tested, and the relative viability was 0.587.

Same assay, conditions: first compound 2.53 µM
In the case of NCI-H2405, the relative viability is reported as 0.703.
Cell Line HOP-62 has a relative viability of 0.205.
With HCC-44 the relative viability was 1.01.
BEN showed a relative viability of 0.768.
In the case of HARA, the relative viability is reported as 0.482.
HCC-78 was tested, and the relative viability was 0.705.
Work on NCI-H322M yielded a relative viability of 0.677.
Cell Line NCI-H2009 has a relative viability of 0.362.
A-427 showed a relative viability of 0.525.
Work on NCI-H441 yielded a relative viability of 0.25.
With NCI-H661 the relative viability was 0.575.
For NCI-H1734, the relative viability was 0.541.
In the case of NCI-H460, the relative viability is reported as 0.584.
Cell Line NCI-H2347 has a relative viability of 0.461.
SW 1573 gave a relative viability of 0.476.
Cell Line 201T has a relative viability of 0.877.
Work on NCI-H1915 yielded a relative viability of 0.27.
HCC-827 was tested, and the relative viability was 0.37.
For LXF-289, the relative viability was 0.347.
Cell Line NCI-H23 has a relative viability of 0.306.
With NCI-H647 the relative viability was 0.373.
NCI-H1651 gave a relative viability of 0.727.
EPLC-272H showed a relative viability of 0.343.
Work on NCI-H1792 yielded a relative viability of 0.51.
Work on NCI-H1355 yielded a relative viability of 0.379.
For NCI-H3122, the relative viability was 0.454.
With NCI-H1437 the relative viability was 0.625.
For NCI-H1755, the relative viability was 0.711.
With NCI-H2023 the relative viability was 0.255.
In the case of HCC-15, the relative viability is reported as 0.705.

Same assay, conditions: first compound 8 µM
NCI-H2405 was tested, and the relative viability was 0.647.
Work on HOP-62 yielded a relative viability of 0.204.
Cell Line HCC-44 has a relative viability of 0.945.
Cell Line LU99A has a relative viability of 0.87.
For BEN, the relative viability was 0.78.
In the case of HARA, the relative viability is reported as 0.408.
HCC-78 was tested, and the relative viability was 0.801.
NCI-H322M was tested, and the relative viability was 0.76.
With LCLC-97TM1 the relative viability was 0.228.
NCI-H2009 gave a relative viability of 0.365.
A-427 was tested, and the relative viability was 0.574.
NCI-H441 showed a relative viability of 0.264.
NCI-H661 was tested, and the relative viability was 0.582.
In the case of NCI-H1734, the relative viability is reported as 0.506.
NCI-H460 showed a relative viability of 0.521.
In the case of NCI-H2347, the relative viability is reported as 0.505.
SW 1573 showed a relative viability of 0.501.
For 201T, the relative viability was 0.824.
NCI-H1915 gave a relative viability of 0.279.
HCC-827 showed a relative viability of 0.351.
Work on LXF-289 yielded a relative viability of 0.386.
In the case of NCI-H23, the relative viability is reported as 0.311.
For NCI-H647, the relative viability was 0.379.
Cell Line NCI-H1651 has a relative viability of 0.598.
With EPLC-272H the relative viability was 0.354.
With NCI-H1792 the relative viability was 0.604.
In the case of NCI-H1355, the relative viability is reported as 0.351.
With NCI-H3122 the relative viability was 0.431.
NCI-H1437 showed a relative viability of 0.555.
NCI-H1755 gave a relative viability of 0.772.
For NCI-H2023, the relative viability was 0.26.
Cell Line HCC-15 has a relative viability of 0.678.

The cell lines below were run with C1CCC(CC1)N(CCNCCC2=C3C(=C(C=C2)O)NC(=O)CO3)C(=O)CCNCCC4=CC(=C(C=C4)Cl)Cl [AZ505] + CC(=O)Nc1cccc(-n2c(=O)n(C3CC3)c(=O)c3c(Nc4ccc(I)cc4F)n(C)c(=O)c(C)c32)c1 [Trametinib] (partner 0.02 µM) in the same assay as above. Details: first compound 0.08 µM.
How it was run: as §1
With NCI-H2405 the relative viability was 0.487.
Work on HOP-62 yielded a relative viability of 0.371.
